From US11627753B2, “Solubilized steviol glycoside compositions” (JAMES AND CAROL MAY FAMILY, LLLP, priority 2014, dated 2023)

Assay: Precipitation from aqueous solution in the absence of the emulsifier
Format: physicochemical
Conditions: without natural emulsifier
Excerpt: In accordance with various exemplary embodiments of the present technology, the sweetener composition may comprise a natural emulsifier. The natural emulsifier may function to disperse the stevia glycosides through an aqueous solution such as water. The dissolved concentration of the stevia glycosides in the aqueous solution may be higher in the presence of the natural emulsifier than in the absence of the natural emulsifier. For example, rebaudioside A present in amounts of 11% by weight or greater may precipitate from an aqueous solution. In various embodiments of the present technology, the natural emulsifier may allow rebaudioside A to be present in aqueous solution in amounts of up to about 20% by weight without precipitation. In some embodiments, adding the natural emulsifier to an aqueous (ie., water-based) solution of stevia glycosides may stabilize the solubility of the sweetener composition including reducing or eliminating the precipitation of solids from the solution by binding any of the components to prevent separation of the finished sweetener composition.
In various embodiments, the solubility of the aqueous sweetener composition may remain stable for more than five days at room temperature. In some embodiments, the solubility of the aqueous sweetener composition may remain a stable for at least six months at room temperature. […]

amount at which it may precipitate from an aqueous solution: ≥ 11 % by weight
Compound: C=C1C[C@@]23CC[C@H]4[C@@](C)(CCC[C@@]4(C)C(=O)O[C@@H]4O[C@H](CO)[C@@H](O)[C@H](O)[C@H]4O)[C@@H]2CC[C@]1(O[C@@H]1O[C@H](CO)[C@@H](O)[C@H](O[C@@H]2O[C@H](CO)[C@@H](O)[C@H](O)[C@H]2O)[C@H]1O[C@@H]1O[C@H](CO)[C@@H](O)[C@H](O)[C@H]1O)C3 [rebaudioside A]
